Assay results from US10130615B2, “Benzomorphan analogs and the use thereof” (priority 2014, dated 2018).

Tests used:
[1] = target: T1, μ-opioid receptor (Homo sapiens, UniProt P35372); test: cell-based; set-up: purchased Perkin Elmer, Shelton, Conn; details: U2OS cells; for EC50: read-out: β-Arr2 μ EC50; for Emax: read-out: β-Arr2 μ Emax
[2] = target: T1, μ-opioid receptor; test: biochemical; set-up: purchased Perkin Elmer, Shelton, Conn; host or cells: HEK-293 or CHO; details: HEK-293 or CHO cells; for EC50: read-out: GTPγS μ EC50; for Emax: relative to DAMGO, read-out: GTPγS μ Emax
[3] = target: T2, ORL-1 receptor (Homo sapiens, UniProt P41146); test: ORL-1 receptor radioligand binding assay ([3H]-nociceptin); details: HEK-293 or CHO cells; read-out: Ki (nM) Opioid Receptor ORL-1
T2 construct: host or cells: HEK-293
T2 sequence (P41146 whole entry): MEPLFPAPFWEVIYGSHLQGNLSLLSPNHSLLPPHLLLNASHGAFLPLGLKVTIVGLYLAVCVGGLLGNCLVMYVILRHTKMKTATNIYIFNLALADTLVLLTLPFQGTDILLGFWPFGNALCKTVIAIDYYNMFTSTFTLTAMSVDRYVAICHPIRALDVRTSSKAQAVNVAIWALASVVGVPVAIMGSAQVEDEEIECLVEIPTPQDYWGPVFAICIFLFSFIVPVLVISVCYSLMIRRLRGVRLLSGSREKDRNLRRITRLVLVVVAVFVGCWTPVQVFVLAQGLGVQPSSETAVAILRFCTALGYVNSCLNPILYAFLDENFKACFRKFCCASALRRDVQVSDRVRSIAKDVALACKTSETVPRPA
Experimental: ORL-1 Receptor Binding Assay Procedure: Membranes from recombinant HEK-293 cells expressing the human opioid receptor-like receptor (ORL-1) (Perkin Elmer, Shelton, Conn.) were prepared by lysing cells in ice-cold hypotonic buffer (2.5 mM MgCl2, 50 mM HEPES, pH 7.4) (10 ml/10 cm dish) followed by homogenization with a tissue grinder/Teflon pestle. Membranes were collected by centrifugation at 30,000×g for 15 min at 4° C. and pellets resuspended in hypotonic buffer to a final concentration of 1-3 mg/ml. Protein concentrations were determined using the BioRad protein assay reagent with bovine serum albumen as standard. Aliquots of the ORL-1 receptor membranes were stored at −80° C.
Radioligand binding assays (screening and dose-displacement) used 0.1 nM [^3H]-nociceptin (Perkin Elmer, Shelton, Conn.; 87.7 Ci/mmole) with 12 μg membrane protein in a final volume of 500 μl binding buffer (10 mM MgCl2, 1 mM EDTA, 5% DMSO, 50 mM HEPES, pH 7.4). Non-specific binding was determined in the presence of […] unlabeled nociceptin (American Peptide Company). All reactions were performed in 96-deep well polypropylene plates for 1 h at room temperature. […] The data from screening and dose-displacement experiments were analyzed using Microsoft Excel and the curve fitting functions in GraphPad PRISM™, v. 3.0 or higher, respectively, or an in-house function for one-site competition curve-fitting.

T1 sequence (P35372 whole entry, species assumed): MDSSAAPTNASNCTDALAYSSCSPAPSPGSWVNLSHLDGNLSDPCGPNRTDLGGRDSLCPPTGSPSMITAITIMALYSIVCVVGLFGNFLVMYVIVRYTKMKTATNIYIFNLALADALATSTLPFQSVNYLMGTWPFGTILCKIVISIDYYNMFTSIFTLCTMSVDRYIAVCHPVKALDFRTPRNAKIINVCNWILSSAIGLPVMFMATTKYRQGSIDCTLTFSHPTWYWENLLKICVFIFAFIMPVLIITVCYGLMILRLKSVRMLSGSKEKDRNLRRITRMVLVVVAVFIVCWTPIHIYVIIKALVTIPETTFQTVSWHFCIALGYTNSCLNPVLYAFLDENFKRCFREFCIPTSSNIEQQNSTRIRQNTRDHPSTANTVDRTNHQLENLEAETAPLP

C[C@H]1[C@H]2Cc3ccc(O)cc3C1(CCN[C@H]1C[C@H]3CCC[C@@H](C1)N3CC[C@@H]1CC[C@H]3C[C@@H]1C3(C)C)CCN2C [Compound 64, (2R,6R,11R)-6-(2-(((1R,3S,5S)-9-(2-((1S,2S,5S)-6,6-dimethylbicyclo-[3.1.1]heptan-2-yl)ethyl)-9-azabicyclo-[3.3.1]nonan-3-yl)amino)ethyl)-3,11-dimethyl-1,2,3,4,5,6-hexahydro-2,6-methanobenzo[d]azocin-8-ol]
EC50 [1]: 7450 ± 929 nM | Emax [1]: 51.8 ± 7.76% | EC50 [2]: 19.6 ± 5.19 nM | Emax [2]: 43.5 ± 2.96% | Ki [3]: 563 ± 97.5 nM

C[C@H]1[C@H]2Cc3ccc(O)cc3C1(CCN[C@H]1C[C@H]3CCC[C@@H](C1)N3[C@@H]1C[C@@H]3CCCC[C@@H](C3)C1)CCN2C [Compound 63, (2R,6R,11R)-6-(2-(((1R,3R,5S)-9-((1R,6S,8r)-bicyclo[4.3.1]decan-8-yl)-9-azabicyclo[3.3.1]nonan-3-yl)amino)-ethyl)-3,11-dimethyl-1,2,3,4,5,6-hexahydro-2,6-methanobenzo[d]azocin-8-ol]
EC50 [1]: 1.23 ± 0.31 nM | Emax [1]: 21.8 ± 1.31% | EC50 [2]: 2.43 ± 0.67 nM | Emax [2]: 74.7 ± 2.4% | Ki [3]: 125 ± 24.2 nM
